Results taken from patent publication US6551605B2, “Diesters or polyesters of naphthalene dicarboxylic acid as solubilizer/stabilizer for retinoids” (Haarmann & Reimer, priority 2001, dated 2003).
Converted amounts (≈) assume the structure as drawn.

How the values were obtained:
[1] = tested on: skin; details: topical, 0.1% versus 0.025%; cited from earlier work
[2] = Solubility of retinoids in diethylhexyl 2,6-naphthalate (HallBrite TQ); assay type: physicochemical; details: organic solvent or mixture, read-out: solubility in diethylhexyl diester of 2,6-naphthalene-dicarboxylic acid
Experimental: Retinoids are lipophilic. […] For example, isotretinoin is soluble in the diethylhexyl diester of 2,6-naphthalene-dicarboxylic acid (diethylhexyl 2,6-naphthalate, HallBrite TQ, C. P. Hall) at approximately 6.7 mg/ml, and tretinoin is soluble in the same diester at approximately 5.6 mg/ml.

[3] = tested on: skin; details: topical, 0.1% versus 0.025%; cited from earlier work; remark: listed apart in the source
[4] = cited from earlier work
[5] = cited from earlier work; remark: listed apart in the source

SMILES	degree of irritation [1]	solubility [2]	therapeutic effectiveness [3]	solubility in chloroform ([4]; chloroform)	solubility in dimethyl sulfoxide ([4]; dimethyl sulfoxide)	solubility in ether ([4]; ether)	solubility in methylene chloride ([4]; methylene chloride)	solubility in water ([4]; water)	stability of aqueous solutions ([5]; aqueous solutions)	stability of solutions in pure organic solvents ([5]; pure organic solvents, stored in the dark)
CC1=C(/C=C/C(C)=C/C=C/C(C)=C\C(=O)O)C(C)(C)CCC1 [isotretinoin, 13-cis-retinoic acid]	more irritating	~6700 µg/mL (≈ 22.3 mM)	more effective							
CC1=C(/C=C/C(C)=C/C=C/C(C)=C/C(=O)O)C(C)(C)CCC1 [tretinoin, all-trans-retinoic acid]		~5600 µg/mL (≈ 18.6 mM)		slightly soluble	40000 µg/mL (≈ 133 mM)	sparingly soluble	soluble	practically insoluble	deteriorate quickly	stable
